Ki data for 38 molecules are collected here from patent US7528138B2, “Pyrazolo[1,5-a]pyrimidines useful as inhibitors of protein kinases” (Vertex Pharmaceuticals Incorporated, priority 2004, dated 2009).

In assay [1] the target is T1, JAK3 (Homo sapiens, UniProt P52333).
T1 sequence (P52333 1-1124): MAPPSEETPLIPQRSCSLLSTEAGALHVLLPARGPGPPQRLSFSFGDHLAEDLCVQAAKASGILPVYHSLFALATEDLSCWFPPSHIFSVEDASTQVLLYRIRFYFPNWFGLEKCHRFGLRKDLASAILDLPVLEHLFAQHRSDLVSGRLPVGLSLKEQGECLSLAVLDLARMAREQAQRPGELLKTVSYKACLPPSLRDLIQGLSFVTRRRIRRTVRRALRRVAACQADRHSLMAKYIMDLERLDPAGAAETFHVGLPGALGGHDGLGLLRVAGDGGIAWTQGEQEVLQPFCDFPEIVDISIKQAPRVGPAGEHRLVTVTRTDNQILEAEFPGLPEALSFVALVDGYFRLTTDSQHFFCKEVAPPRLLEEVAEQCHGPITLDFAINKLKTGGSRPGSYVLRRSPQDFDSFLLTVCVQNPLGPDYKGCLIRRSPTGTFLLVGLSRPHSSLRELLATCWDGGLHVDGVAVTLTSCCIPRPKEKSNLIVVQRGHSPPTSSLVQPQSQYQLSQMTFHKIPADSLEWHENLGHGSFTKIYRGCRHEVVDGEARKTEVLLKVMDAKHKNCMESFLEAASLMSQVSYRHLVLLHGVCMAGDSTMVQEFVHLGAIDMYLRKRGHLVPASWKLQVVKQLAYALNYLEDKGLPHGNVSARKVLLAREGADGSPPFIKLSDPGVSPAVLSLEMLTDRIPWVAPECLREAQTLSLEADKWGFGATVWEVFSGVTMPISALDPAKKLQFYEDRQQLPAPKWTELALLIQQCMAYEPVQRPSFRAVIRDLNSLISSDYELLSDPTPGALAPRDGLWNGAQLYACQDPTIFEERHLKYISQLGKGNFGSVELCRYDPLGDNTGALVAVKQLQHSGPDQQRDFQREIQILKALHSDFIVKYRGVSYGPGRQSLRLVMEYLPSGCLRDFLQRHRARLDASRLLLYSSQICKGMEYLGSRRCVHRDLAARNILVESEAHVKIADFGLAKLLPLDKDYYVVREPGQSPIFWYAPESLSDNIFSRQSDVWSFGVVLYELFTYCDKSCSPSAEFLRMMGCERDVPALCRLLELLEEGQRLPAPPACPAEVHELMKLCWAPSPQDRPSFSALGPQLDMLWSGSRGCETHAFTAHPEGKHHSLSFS
The assay can be described thus: JAK3 Inhibition Assay, 33P incorporation. In kind it is biochemical. Particulars: enzyme inhibition data (Ki), Table 11. In outline: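 Recombinant JAK3 at 1 nM in HEPES pH 7.4 buffer with 10 mM MgCl2, 1 mM DTT and 0.01% BSA. Substrates were 5 μM ATP (200 uCi/μmole) and 1 μM poly(Glu)4Tyr, reacted 20 min at 25 °C. Stopped with TCA, and 33P incorporation counted on glass fiber filters.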

Assay [2] has as its target c-Met (Homo sapiens, UniProt P08581). The experiment in a line: c-Met Inhibition Assay, coupled enzyme system. In kind it is biochemical. As to conditions: enzyme inhibition data (Ki), Table 11. In outline: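 Pyruvate kinase/lactate dehydrogenase-coupled NADH assay in HEPES pH 7.5 with 80 nM c-Met, 200 μM ATP and 10 μM polyGluTyr at 30° C. Compound (0.006–12.5 μM final, 12-point) preincubated 10 min before ATP start; rates over 10 min gave Ki.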

SMILES strings stand for the structures.

Chain of c-Met (P08581 25-1390): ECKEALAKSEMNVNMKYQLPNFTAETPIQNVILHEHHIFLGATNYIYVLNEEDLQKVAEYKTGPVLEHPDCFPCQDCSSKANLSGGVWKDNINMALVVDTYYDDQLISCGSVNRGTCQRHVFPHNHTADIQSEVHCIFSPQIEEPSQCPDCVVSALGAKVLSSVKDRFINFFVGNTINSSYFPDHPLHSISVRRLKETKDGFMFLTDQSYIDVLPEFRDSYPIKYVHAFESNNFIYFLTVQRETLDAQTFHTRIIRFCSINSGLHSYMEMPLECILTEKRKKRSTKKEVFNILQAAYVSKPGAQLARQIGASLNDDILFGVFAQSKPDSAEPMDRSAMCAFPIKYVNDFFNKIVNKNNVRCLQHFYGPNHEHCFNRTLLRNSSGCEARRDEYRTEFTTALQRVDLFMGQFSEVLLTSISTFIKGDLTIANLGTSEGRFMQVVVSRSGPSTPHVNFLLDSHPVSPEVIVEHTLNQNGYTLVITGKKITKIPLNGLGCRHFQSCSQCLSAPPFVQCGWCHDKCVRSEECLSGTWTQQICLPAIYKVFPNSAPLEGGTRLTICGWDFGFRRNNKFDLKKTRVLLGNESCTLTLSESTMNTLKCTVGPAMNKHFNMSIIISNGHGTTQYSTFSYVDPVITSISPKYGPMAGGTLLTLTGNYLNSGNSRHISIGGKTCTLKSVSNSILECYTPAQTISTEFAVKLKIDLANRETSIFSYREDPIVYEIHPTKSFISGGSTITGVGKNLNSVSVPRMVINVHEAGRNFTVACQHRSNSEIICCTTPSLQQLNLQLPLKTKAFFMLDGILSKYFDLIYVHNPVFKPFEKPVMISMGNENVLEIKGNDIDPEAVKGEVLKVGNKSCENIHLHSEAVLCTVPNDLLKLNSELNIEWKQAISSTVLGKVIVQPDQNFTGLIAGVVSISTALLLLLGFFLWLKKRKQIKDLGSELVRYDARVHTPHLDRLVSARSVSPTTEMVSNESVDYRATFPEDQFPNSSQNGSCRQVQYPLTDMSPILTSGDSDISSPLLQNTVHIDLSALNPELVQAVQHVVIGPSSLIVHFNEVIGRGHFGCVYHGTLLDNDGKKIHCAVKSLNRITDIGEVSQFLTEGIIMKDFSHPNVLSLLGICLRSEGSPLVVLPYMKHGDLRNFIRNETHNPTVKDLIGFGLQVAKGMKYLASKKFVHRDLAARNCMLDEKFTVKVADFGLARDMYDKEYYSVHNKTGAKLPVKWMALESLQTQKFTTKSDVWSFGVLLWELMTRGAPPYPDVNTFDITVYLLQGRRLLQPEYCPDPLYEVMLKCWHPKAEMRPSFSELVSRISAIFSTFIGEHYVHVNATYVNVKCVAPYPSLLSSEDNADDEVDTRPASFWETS

Turning to `Nc1nn2cc(-c3ccncc3)cnc2c1-c1cc(NCC2CCCCC2)ncn1` [Compound V-184], the Ki in assay [1] was 0.5 to 5 µM; in assay [2], below 0.5 µM.
For `CC(C)CNc1cc(-c2c(N)nn3cc(-c4ccncc4)cnc23)ncn1` [Compound V-185] the same measures were below 0.5 µM and below 0.5 µM.
For the molecule `CN(C)CCN(C)C(=O)c1ccc(-c2cnc3c(-c4ccccn4)c(N)nn3c2)cc1` [Compound V-188], the Ki was 0.5 to 5 µM in assay [1] and below 0.5 µM in assay [2].
On the same counts, the results for `CNCCN(C)C(=O)c1cccc(-c2cnc3c(-c4ccccn4)c(N)nn3c2)c1` [Compound V-189] are 0.5 to 5 µM and below 0.5 µM.
For the molecule `CNCCCN(C)C(=O)c1cccc(-c2cnc3c(-c4ccccn4)c(N)nn3c2)c1` [Compound V-190], the values for the Ki in assay [1] and in assay [2] were 0.5 to 5 µM and below 0.5 µM, respectively.
For the molecule `CNCCCN(C)C(=O)c1ccc(-c2cnc3c(-c4ccccn4)c(N)nn3c2)cc1` [Compound V-191], the Ki is 0.5 to 5 µM in assay [1] and below 0.5 µM in assay [2].
In the case of `Nc1nn2cc(-c3ccc(CO)cc3)cnc2c1-c1ccccn1` [Compound V-194], the values for the Ki in assay [1] and in assay [2] were 0.5 to 5 µM and below 0.5 µM, respectively.
As for `NCc1ccc(-c2cnc3c(-c4ccccn4)c(N)nn3c2)cc1` [Compound V-195], the Ki in assay [1] is 0.5 to 5 µM; in assay [2] it was below 0.5 µM.
For `NCc1cccc(-c2cnc3c(-c4ccccn4)c(N)nn3c2)c1` [Compound V-202] the same measures were above 5 µM and below 0.5 µM.
On the same counts, the results for `CNC(=O)c1cnc2c(-c3ccccn3)c(N)nn2c1` [Compound V-204] are above 5 µM and 0.5 to 5 µM.
In the case of `Nc1nn2cc(C(=O)NC3CCCNC3)cnc2c1-c1ccccn1` (stereo not shown) [Compound V-206], the Ki is above 5 µM in assay [1] and 0.5 to 5 µM in assay [2].
Turning to `Nc1nn2cc(-c3ccc(CN4CCOCC4)cc3)cnc2c1-c1ccccn1` [Compound V-208], the Ki in assay [1] and in assay [2] was 0.5 to 5 µM in each case.
`Nc1nn2cc(-c3ccc4[nH]ccc4c3)cnc2c1-c1ccccn1` [Compound V-212]: the results for the Ki in assay [1] and in assay [2] were above 5 µM and below 0.5 µM, respectively.
Consider `CN(C)Cc1ccc(-c2cnc3c(-c4ccccn4)c(N)nn3c2)cc1` [Compound V-214], for which the results for the inhibition constant Ki in assay [1] and in assay [2] were 0.5 to 5 µM and below 0.5 µM, respectively.
Consider `CN(C)Cc1cccc(-c2cnc3c(-c4ccccn4)c(N)nn3c2)c1` [Compound V-215], for which the inhibitory constant (Ki) in assay [1] was above 5 µM; in assay [2], below 0.5 µM.
On the same counts, the results for `COc1ccc(-c2cn3nc(N)c(-c4ccccn4)c3nc2C)cc1` [Compound V-216] are above 5 µM and 0.5 to 5 µM.
On the same counts, the results for `Nc1nn2cc(-c3ccc(CN4CCNCC4)cc3)cnc2c1-c1ccccn1` [Compound V-217] are 0.5 to 5 µM and below 0.5 µM.
For `COc1ccc(-c2cnc3c(-c4ccncc4)c(N)nn3c2)cc1` [Compound V-219] the same measures were above 5 µM and 0.5 to 5 µM.
In the case of `Nc1nn2cc(-c3cccc(CO)c3)cnc2c1-c1ccccn1` [Compound V-221], the Ki is 0.5 to 5 µM in assay [1] and below 0.5 µM in assay [2].
On to `Nc1nn2cc(-c3cccc(N4CCNCC4)c3)cnc2c1-c1ccccn1` [Compound V-222], for which the Ki was 0.5 to 5 µM in assay [1] and below 0.5 µM in assay [2].
`Nc1nn2cc(-c3cccc(CN4CCNCC4)c3)cnc2c1-c1ccccn1` [Compound V-223]: the Ki in assay [1] was 0.5 to 5 µM; in assay [2], below 0.5 µM.
Take `Nc1nn2cc(-c3cccc(CN4CCOCC4)c3)cnc2c1-c1ccccn1` [Compound V-225]: the Ki is above 5 µM in assay [1] and below 0.5 µM in assay [2].
On the same counts, the results for `NC1NN2C=C(c3cccc(CN4CC[C@@H](N)C4)c3)C=NC2=C1c1ccccn1` (stereo partly shown) [Compound V-226] are above 5 µM and below 0.5 µM.
For `NC1NN2C=C(c3cccc(CN4CC[C@H](N)C4)c3)C=NC2=C1c1ccccn1` (stereo partly shown) [Compound V-227] the same measures were above 5 µM and below 0.5 µM.
For the molecule `NC1NN2C=C(c3cccc(CN4CCCNCC4)c3)C=NC2=C1c1ccccn1` (stereo not shown) [Compound V-228], the Ki was above 5 µM in assay [1] and below 0.5 µM in assay [2].
As to `NC1CCN(Cc2cccc(C3=CN4NC(N)C(c5ccccn5)=C4N=C3)c2)CC1` (stereo not shown) [Compound V-229], the figures for the Ki in assay [1] and in assay [2] were above 5 µM and below 0.5 µM, respectively.
On the same counts, the results for `CNCCCN(C)Cc1ccc(-c2cnc3c(-c4ccccn4)c(N)nn3c2)cc1` [Compound V-230] are 0.5 to 5 µM and below 0.5 µM.
On the same counts, the results for `Nc1nn2cc(-c3ccc(CN4CC[C@@H](N)C4)cc3)cnc2c1-c1ccccn1` [Compound V-231] are 0.5 to 5 µM and below 0.5 µM.
On the same counts, the results for `Nc1nn2cc(-c3ccc(CNC4CCNCC4)cc3)cnc2c1-c1ccccn1` [Compound V-232] are above 5 µM and below 0.5 µM.
As for `Nc1nn2cc(-c3ccc(CN4CC[C@H](N)C4)cc3)cnc2c1-c1ccccn1` [Compound V-233], the Ki in assay [1] was 0.5 to 5 µM; in assay [2] it was below 0.5 µM.
As to `Nc1nn2cc(-c3ccc(CN4CCC(N)CC4)cc3)cnc2c1-c1ccccn1` [Compound V-234], the inhibition constant Ki in assay [1] is 0.5 to 5 µM; in assay [2], below 0.5 µM.
For the molecule `CNCc1ccc(-c2cnc3c(-c4ccccn4)c(N)nn3c2)cc1` [Compound V-236], the Ki was 0.5 to 5 µM in assay [1] and below 0.5 µM in assay [2].
As to `CC(C)(O)C#Cc1cnc2c(-c3ccccn3)c(N)nn2c1` [Compound V-237], the inhibition constant Ki is 0.5 to 5 µM in assay [1] and below 0.5 µM in assay [2].
`Nc1nn2cc(C#CCO)cnc2c1-c1ccccn1` [Compound V-238]: the Ki in assay [1] was 0.5 to 5 µM; in assay [2], below 0.5 µM.
On the same counts, the results for `Nc1nn2cc(-c3ccncc3)cnc2c1-c1cc(Nc2ccccc2)ncn1` [Compound V-241] are below 0.5 µM and below 0.5 µM.
For `COc1ccccc1Nc1cc(-c2c(N)nn3cc(-c4ccncc4)cnc23)ncn1` [Compound V-242] the same measures were below 0.5 µM and below 0.5 µM.
For `CC(C)CN(C)c1cc(-c2c(N)nn3cc(-c4ccncc4)cnc23)ncn1` [Compound V-243] the same measures were below 0.5 µM and below 0.5 µM.
On to `CCCN(CC)c1cc(-c2c(N)nn3cc(-c4ccncc4)cnc23)ncn1` [Compound V-244], for which the Ki in assay [1] and in assay [2] was below 0.5 µM in each case.

As usually defined, the Ki is a dissociation constant, usually derived from enzyme kinetics or from competition with a known ligand.
